Test results from patent publication EP1595878A1, “INDOLE DERIVATIVES WITH APOPTOSIS INDUCING ACTIVITY” (Zentaris GmbH, priority 2004, dated 2005).
Converted amounts (≈) assume the structure as drawn. Read-outs that look alike come from different tables or passages of the source.

Key:
[1] = type: physicochemical; settings: water, at most 1 % DMSO added
Source text: Die Bestimmung der Sättigungslöslichkeit in Wasser für die Verbindungen 1, 2, 10 und 14 erfolgte wie nachfolgend beschrieben. Zum Anlösen der Substanzen und um die Benetzung der Proben zu verbessern, wurde maximal 1 % DMSO zugesetzt. Zur Überprüfung des Gehaltes wurde eine HPLC-UV-Methode angewandt. Die Ergebnisse sind in der nachfolgenden Tabelle 5 zusammengefasst: Tabelle 5: […]

human Topoisomerase II = human Topoisomerase II (Homo sapiens, UniProt P11388); assay: pRYG relaxation assay for topoisomerase II activity; type: biochemical; settings: compound 1 at 100, 31.6 and 10 µM; reference compounds at 316 and 100 µM
Chain of human Topoisomerase II (P11388 whole entry): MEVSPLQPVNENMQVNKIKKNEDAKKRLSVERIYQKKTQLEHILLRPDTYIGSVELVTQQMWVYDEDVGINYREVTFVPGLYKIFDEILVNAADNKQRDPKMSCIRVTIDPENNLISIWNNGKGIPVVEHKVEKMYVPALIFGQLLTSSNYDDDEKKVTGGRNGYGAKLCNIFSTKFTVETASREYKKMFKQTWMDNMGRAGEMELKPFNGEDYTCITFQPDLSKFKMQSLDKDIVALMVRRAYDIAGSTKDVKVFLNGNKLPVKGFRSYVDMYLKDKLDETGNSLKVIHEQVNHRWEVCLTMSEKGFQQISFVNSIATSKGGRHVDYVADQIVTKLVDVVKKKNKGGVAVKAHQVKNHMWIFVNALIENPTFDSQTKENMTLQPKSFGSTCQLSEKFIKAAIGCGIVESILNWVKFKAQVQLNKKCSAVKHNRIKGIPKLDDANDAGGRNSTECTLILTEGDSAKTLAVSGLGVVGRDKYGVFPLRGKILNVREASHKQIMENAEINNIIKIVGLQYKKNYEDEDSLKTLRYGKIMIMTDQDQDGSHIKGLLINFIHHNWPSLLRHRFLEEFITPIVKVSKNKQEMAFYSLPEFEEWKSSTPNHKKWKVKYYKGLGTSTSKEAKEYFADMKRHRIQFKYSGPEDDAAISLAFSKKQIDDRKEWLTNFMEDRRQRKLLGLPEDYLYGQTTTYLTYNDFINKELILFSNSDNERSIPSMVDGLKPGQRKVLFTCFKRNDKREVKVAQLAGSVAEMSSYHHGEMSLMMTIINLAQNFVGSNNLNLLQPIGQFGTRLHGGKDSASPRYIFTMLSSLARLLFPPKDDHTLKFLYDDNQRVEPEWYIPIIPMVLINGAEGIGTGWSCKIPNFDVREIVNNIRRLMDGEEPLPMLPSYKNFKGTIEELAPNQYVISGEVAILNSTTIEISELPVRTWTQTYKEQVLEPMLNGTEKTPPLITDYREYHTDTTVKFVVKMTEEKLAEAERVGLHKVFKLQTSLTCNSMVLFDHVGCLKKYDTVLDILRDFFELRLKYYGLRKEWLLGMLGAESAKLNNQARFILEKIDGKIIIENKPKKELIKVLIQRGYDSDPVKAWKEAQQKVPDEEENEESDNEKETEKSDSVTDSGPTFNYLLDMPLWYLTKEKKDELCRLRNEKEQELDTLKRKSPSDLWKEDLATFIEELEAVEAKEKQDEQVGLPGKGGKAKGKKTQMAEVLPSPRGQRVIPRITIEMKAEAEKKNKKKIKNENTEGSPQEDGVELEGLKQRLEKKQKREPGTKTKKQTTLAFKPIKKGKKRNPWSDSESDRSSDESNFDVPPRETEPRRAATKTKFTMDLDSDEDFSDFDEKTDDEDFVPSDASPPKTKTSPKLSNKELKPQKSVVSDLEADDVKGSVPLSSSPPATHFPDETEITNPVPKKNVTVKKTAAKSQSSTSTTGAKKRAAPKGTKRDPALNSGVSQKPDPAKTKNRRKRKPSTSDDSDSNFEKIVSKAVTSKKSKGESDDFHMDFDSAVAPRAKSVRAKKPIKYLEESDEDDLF
Experimental: Mit diesem Relaxationsassay konnte zusätzlich die inhibitorische Eigenschaft der erfindungsgemäßen Verbindungen auf Topoisomerase II gezeigt werden. Die Testung der erfindungsgemäßen Verbindung 1 erfolgte hierbei bei drei unterschiedlichen Konzentrationen (100, 31.6 und 10 µM). Zum Vergleich setzte man die Referenzverbindungen m-Amsacrin, Paclitaxel (Taxol) und Vincristine bei Konzentrationen von 316 und 100µM ein.
Zu 1µL vorgelegter Testsubstanz (20fach konzentriert in 100% DMSO) werden 2µL 10x Assay Puffer, 0,5µL pRYG DNA (125ng), 0,5µL human Topoisomerase II (1 unit) und 16µL H2O pipettiert und gemischt. Die Reaktionsansätze werden in den auf 37°C vorgeheizten Heizblock gestellt und 30min bei 37°C inkubiert. Die Inkubation wird nach Zugabe von 4µL 5x Stop Puffer abgestoppt. Danach werden 10µL des Ansatzes auf ein 1,2% Agarosegel mit 0,25µg/mL Ethidiumbromid aufgetragen und 2,5h bei 100V aufgetrennt. Zum Schluß wird das Gel unter UV Anregung fotografiert (s. Figur 3). Die Quantifizierung der Inhibierung der pRYG Relaxation erfolgt mit der GelPro®Analyzer Software (s. Figur 4).

Rindertubulin = assay: Inhibition of tubulin polymerisation in vitro; type: biochemical, Rind
Source text: Die Substanzen 1, 4, 9, 11, 12, 13 und 15 wurden in einem in-vitro Test auf Hemmung der Polymerisation von Rindertubulin getestet (D.M. Bollag et al. Cancer Res. 1995, 55, 2325-2333). In diesem Test wird durch Zyklen von Polymerisation und Depolymerisation aufgereinigtes Tubulin eingesetzt, welches durch Zugabe von GTP und Erwärmung zur Polymerisation gebracht wird. In Tabelle 3 sind die EC50 Werte der Polymerisationshemmung von Tubulin mit 30% assoziierten Proteinen (MAPs) angegeben.

KB/HeLa Zellen = assay: Cell cycle analysis (G2/M arrest); type: cell-based; settings: Homo sapiens, read-out: EC50 in nM (50% cells in G2/M)
Source text: Der Zellzyklus umfasst die Entwicklung der Zelle von einer Zellgeneration zur nächsten.
Während der Ruhephase (G0) und präsynthetischen Phase (G1) besitzt die Zelle einen diploiden Chromosomensatz (2c). In der Synthesephase (S) wird die DNA-Menge durch Replikation vermehrt. Die S-Phase endet mit Erreichen der prämitotischen Phase (G2M), in der die Zelle einen reduplizierten Chromosomenbestand (4c) und verdoppelten DNA-Gehalt aufweist. In der nachfolgenden, kurzdauernden Mitosephase (M) kommt es zur gleichmäßigen Aufteilung der reduplizierten Chromosomen auf zwei Tochterzellen, die dann jeweils wieder einen diploiden DNA Gehalt zeigen und sich in der G01-Phase befinden, so daß der Zellzyklus neu beginnen kann.
Für die Zellzyklusanalyse wurden KB/HeLa Zellen mit den Testsubstanzen in unterschiedlichen Konzentrationen (0.1-1000 nM) 24 Stunden bei 37°C behandelt.
Der prozentuale Anteil der in der G2/M Phase des Zellzyklus arrettierten Zellen nach Behandlung mit Referenz- oder ausgewählten Testsubstanzen ist in der nachfolgenden Tabelle 4 dargestellt. Die Ergebnisse wurden mit einer speziellen Analysesoftware (ModFit™) ausgewertet.

LT12/mdr = assay: XTT proliferation assay, resistant LT12/mdr; type: cell-based; settings: Rattus norvegicus
Source text: (§1) Die Substanzen 1, 2, 4, 9, 11, 12 , 13 und 15 wurden in einem Proliferationstest an etablierten Tumorzelllinien auf ihre anti-proliferative Aktivität hin untersucht (D.A. Scuderio et al. Cancer Res. 1988, 48, 4827-4833). Der verwendete Test bestimmt die zelluläre Dehydrogenase-Aktivität und ermöglicht eine Bestimmung der Zellvitalität und indirekt der Zellzahl. Bei den verwendeten Zelllinien handelt es sich um die humane Cervixkarzinom Zelllinie KB/HeLa (ATCC CCL17), die ovariale Adenokarzinomzelllinie SKOV-3 (ATCC HTB77), die humane Glioblastom Zelllinie SF-268 (NCI 503138) und die Lungenkarzinom Zelllinie NCI-H460 (NCI 503473). Tabelle 1:
(§2) Zur weiteren Charakterisierung wurden die Substanzen 1, 2, 4 und 11 gegenüber multi drug resistenten Zelllinien im Vergleich zu den nicht-resistenten Wildtypzelllinien untersucht.
(§3) Bei den untersuchten Zelllinien handelt es sich um die murine L1210, die akute myeloische Leukaemie Zelllinie LT12 und um die resistenten Linien L1210/mdr und LT12/mdr. Außerdem wurden die murine P388 Zelllinie (methyl-cholanthreneinduced lymphoid neoplasm) sowie die Doxorubicin-resistente P388 als Testsysteme herangezogen.

[2] = molecular target: humaner DNA-Topoisomerase II (Homo sapiens, UniProt P11388); assay: kDNA decatenation assay for topoisomerase II activity; type: biochemical; settings: compound 1 at 100, 31.6 and 10 µM; reference compounds at 100 µM
Chain of humaner DNA-Topoisomerase II (P11388 whole entry): as above
Experimental: In diesem von P. Arimondo (Anti-Cancer Drug Design 2000, 15 (6), 413-421) beschriebenen Assay wird kDNA mit humaner DNA-Topoisomerase II in Abwesenheit oder Gegenwart der Testverbindungen behandelt. Die Testung der erfindungsgemäßen Verbindung 1 erfolgte hierbei bei drei unterschiedlichen Konzentrationen (100, 31.6 und 10 µM). Zum Vergleich setzte man eine Positivkontrolle und die Referenzverbindungen m-Amsacrin (m-Amsa), Paclitaxel (Taxol) und Vincristine bei einer jeweiligen Konzentration von 100µM ein.
Zu 1µL vorgelegter Testsubstanz (20fach konzentriert in 100% DMSO) werden 2µL 10x Assay Puffer, 1µL kDNA (200ng), 0,5µL human Topoisomerase II (1unit) und 15,5µL H2O pipettiert und gemischt.
Die Reaktionsansätze werden in den auf 37°C vorgeheizten Heizblock gestellt und 10min bei 37°C inkubiert. Die Inkubation wird nach Zugabe von 4µL 5x Stop Puffer gestoppt und nachfolgend die Substanz mit CIA extrahiert. Danach werden 20µL des Überstandes auf ein 1 % Agarosegel mit 0,25µg/mL Ethidiumbromid aufgetragen und 1 h bei 100V aufgetrennt. Zum Schluss wird das Gel unter UV-Anregung fotografiert (s. Figur 1). Die Quantifizierung der Inhibierung der Decatenation von kDNA erfolgt mit der GelPro®Analyzer Software (s. Figur 2)

[3] = test system: Doxorubicin-resistente P388; assay: XTT proliferation assay, doxorubicin-resistant P388; type: cell-based, murine; settings: Mus musculus
Source text: as §1, §2, §3

L1210VCR = assay: XTT proliferation assay, resistant L1210; type: cell-based, murine; settings: Mus musculus
Source text: as §1, §2, §3

U-937 Zelllinie = assay: CDD plus nucleosome ELISA test (apoptosis detection); type: cell-based; settings: U-937, 1nM-10µM, 24 h treatment; for Nucleosomen im Zelllysat: cell lysate; for Nucleosomen im Zellkulturüberstand: culture supernatant
Source text: Die Kernfragmentierung ist eine Spätfolge apoptotischer Prozesse. Die dabei zu beobachtenden Veränderungen lassen sich auf durch Endonukleasen gespaltene DNA-Stränge und daraus resultierende Fragmentierung in Nucleosomen Partikel zurückführen.
Zum Nachweis der Nucleosomen Partikel wurde der von der Firma Roche Molecular Biochemicals beschriebene CDD^plus Nucleosomen ELISA Test eingesetzt. Hierzu untersuchte man die Verbindungen 1 und 2 an der U-937 Zelllinie bei unterschiedlichen Konzentrationen (1nM-10µM, 24 h Behandlung). (s. Figur 5 und Figur 6)

[4] = test system: akute myeloische Leukaemie Zelllinie LT12; assay: XTT proliferation assay, LT12 wild type; type: cell-based; settings: Rattus norvegicus, LT12, read-out: XTT Proliferationsassay, EC50
Source text: as §1, §2, §3

[5] = test system: humane Glioblastom Zelllinie SF-268 (NCI 503138); assay: XTT proliferation assay (cytotoxicity test), SF-268; type: cell-based; settings: Homo sapiens, read-out: XTT Proliferationsassay, EC50
Source text: as §1, with “503473).” for “503473). Tabelle 1:”

Mamma, MAXF857 = type: in vivo, Mäuse; settings: 80 mg/kg p.o.
Source text: Die in vivo Aktivität und Verträglichkeit der erfindungsgemäßen Verbindung 2 wurde im Vergleich zu der Substanz 10 in einem weiteren humanen Xenograft-Modell (Mamma, MAXF857) überprüft. Die Ergebnisse werden in der nächsten Tabelle gezeigt: Effect of 2 and 10 on the Mammary Cancer MAXF857 Tabelle 7: […]

[6] = test system: Lungenkarzinom Zelllinie NCI-H460 (NCI 503473); assay: XTT proliferation assay (cytotoxicity test), NCI-H460; type: cell-based; settings: Homo sapiens, NCl-H460, read-out: XTT Proliferationsassay, EC50
Source text: as §1, with “503473).” for “503473). Tabelle 1:”

[7] = test system: murine P388 Zelllinie (methyl-cholanthreneinduced lymphoid neoplasm); assay: XTT proliferation assay, P388 wild type; type: cell-based; settings: Mus musculus, P388, read-out: XTT Proliferationsassay, EC50
Source text: as §1, §2, §3

[8] = test system: humane Cervixkarzinom Zelllinie KB/HeLa (ATCC CCL17); assay: XTT proliferation assay (cytotoxicity test), KB/HeLa; type: cell-based; settings: Homo sapiens, read-out: XTT Proliferationsassay, EC50
Source text: as §1, with “503473).” for “503473). Tabelle 1:”

murine L1210 = assay: XTT proliferation assay, L1210 wild type; type: cell-based; settings: Mus musculus, L1210, read-out: XTT Proliferationsassay, EC50
Source text: as §1, §2, §3

[9] = test system: ovariale Adenokarzinomzelllinie SKOV-3 (ATCC HTB77); assay: XTT proliferation assay (cytotoxicity test), SKOV-3; type: cell-based; settings: Homo sapiens, SK-OV-3; SKOV3; read-out: XTT Proliferationsassay, EC50
Source text: as §1, with “503473).” for “503473). Tabelle 1:”

Melanom, MEXF462 = type: in vivo, Mäuse; settings: 80 mg/kg p.o.; day 18
Source text: Die in vivo Aktivität und Verträglichkeit der erfindungsgemäßen Verbindung 2 wurde im Vergleich zu den Substanzen 10 und 14 in einem humanen Xenograft-Modell (Melanom, MEXF462) überprüft. Die Ergebnisse sind in der nachfolgenden Tabelle 6 zusammengefasst: in vivo Aktivitäten von Verbindung 2, 10 and 14 (Melanom; MEXF462) Tabelle 6: […]

**Q.** For `O=C(Nc1cnc2nccnc2c1)C(=O)c1cn(Cc2ccc(Cl)cc2)c2ccccc12` [Verbindung 1, 2-[1-(4-Chlor-benzyl)-1H-indol-3-yl]-2-oxo-N-pyrido[2,3-b]pyrazin-7-yl-acetamid], which “Sättigungslöslichkeit in Wasser” value [1] is on record?
**A.** Its value is 25.0 µg/mL.

**Q.** What about the “Hemmung der Topoisomerase II (Inhibierung der pRYG Relaxation)” value (human Topoisomerase II) of the same molecule?
**A.** The value was “signifikante Hemmung”.

**Q.** And the “Hemmung der Tubulin-Polymerisation, EC50” value (Rindertubulin; tubulin with 30% associated proteins (MAPs), mean of two independent experiments)?
**A.** The value was 0.71 µg/mL.

**Q.** And the “Hemmwirkung auf die Polymerisation von Tubulin” value (Rindertubulin; verbal summary of Table 3)?
**A.** The value was “sehr potente Hemmwirkung”.

**Q.** And the EC50 (KB/HeLa Zellen; KB/HeLa cells, 0.1-1000 nM, 24 h at 37°C)?
**A.** Its EC50 is 25.2 nM.

**Q.** What about the EC50 (LT12/mdr; LT12, LT12mdr, read-out: XTT Proliferationsassay, EC50) of the same molecule?
**A.** The EC50 was 0.017 µg/mL (≈ 0.0385 µM).

**Q.** And the “Hemmung der Topoisomerase II (Inhibierung der Decatenation von kDNA)” value [2]?
**A.** The value was “signifikante Hemmung”.

**Q.** What about the EC50 ([3]; P388, P388ADR, read-out: XTT Proliferationsassay, EC50) of the same molecule?
**A.** Its EC50 is 0.019 µg/mL (≈ 0.043 µM).

**Q.** And the EC50 (L1210VCR; L1210, L1210VCR, read-out: XTT Proliferationsassay, EC50)?
**A.** Its EC50 is 0.021 µg/mL (≈ 0.0475 µM).

**Q.** And the “Nucleosomen im Zelllysat” value (U-937 Zelllinie)?
**A.** Its value is “konzentrationsabhängiger Anstieg”.

**Q.** And the “Nucleosomen im Zellkulturüberstand” value (U-937 Zelllinie)?
**A.** Its value is “kein signifikanter Anstieg”.

**Q.** With `CC(=O)N(C(=O)C(=O)c1cn(Cc2ccc(Cl)cc2)c2ccccc12)c1ccc2ncccc2c1` [Verbindung 2, N-{2-[1-(4-Chlor-benzyl)-1H-indol-3-yl]-2-oxo-acetyl}-N-chinolin-6-yl-acetamid] as the molecule, how does the EC50 [4] read?
**A.** Its EC50 is 0.225 µg/mL (≈ 0.467 µM).

**Q.** And the EC50 [5]?
**A.** Its EC50 is 0.166 µg/mL (≈ 0.344 µM).

**Q.** And the “Sättigungslöslichkeit in Wasser” value [1]?
**A.** The value was 28.5 µg/mL.

**Q.** And the “Optimale T/C % (Tag)” value (Mamma, MAXF857; day 10)?
**A.** Its value is 9.6% (10).

**Q.** And the Todesfällen (Mamma, MAXF857; dead animals / total)?
**A.** Its Todesfällen is 0/6 Mäuse.

**Q.** And the EC50 [6]?
**A.** Its EC50 is 0.168 µg/mL (≈ 0.349 µM).

**Q.** And the EC50 [7]?
**A.** Its EC50 is 0.224 µg/mL (≈ 0.465 µM).

**Q.** What about the EC50 (KB/HeLa Zellen; HeLa, 24 h) of the same molecule?
**A.** Its EC50 is 125 nM.

**Q.** And the EC50 [8]?
**A.** Its EC50 is 0.202 µg/mL (≈ 0.419 µM).

**Q.** What about the EC50 (LT12/mdr; LT12, read-out: XTT Proliferationsassay, EC50) of the same molecule?
**A.** Its EC50 is 0.272 µg/mL (≈ 0.564 µM).

**Q.** What about the EC50 (murine L1210) of the same molecule?
**A.** Its EC50 is 0.206 µg/mL (≈ 0.427 µM).

**Q.** What about the EC50 ([3]; P388, read-out: XTT Proliferationsassay, EC50) of the same molecule?
**A.** The EC50 was 0.215 µg/mL (≈ 0.446 µM).

**Q.** And the EC50 (L1210VCR; L1210, read-out: XTT Proliferationsassay, EC50)?
**A.** Its EC50 is 0.558 µg/mL (≈ 1.16 µM).

**Q.** What about the EC50 [9] of the same molecule?
**A.** Its EC50 is 0.123 µg/mL (≈ 0.255 µM).

**Q.** And the “Optimale T/C % (Tag)” value (Melanom, MEXF462)?
**A.** Its value is 0.0%.

**Q.** What about the “Nucleosomen im Zelllysat” value (U-937 Zelllinie) of the same molecule?
**A.** The value was “konzentrationsabhängiger Anstieg”.

**Q.** And the “Nucleosomen im Zellkulturüberstand” value (U-937 Zelllinie)?
**A.** Its value is “kein signifikanter Anstieg”.
